# Patent US20250345169A1, “DEVICES FOR PROVIDING TISSUE SUPPORT DURING BREAST RECONSTRUCTION, AND SYSTEMS AND METHODS THEREOF” (Melodi Health, Inc., priority 2023, published 2025)
# Conditions: in vivo
row,Compound,systemic plasma level
1,CO[C@H]1/C=C/O[C@@]2(C)Oc3c(C)c(O)c4c(O)c(c(/C=N/N5CCN(C)CC5)c(O)c4c3C2=O)NC(=O)/C(C)=C\C=C\[C@H](C)[C@H](O)[C@@H](C)[C@@H](O)[C@@H](C)[C@H](OC(C)=O)[C@@H]1C [Rifampin],below detection limits
2,CN(C)c1ccc(O)c2c1C[C@H]1C[C@H]3[C@H](N(C)C)C(O)=C(C(N)=O)C(=O)[C@@]3(O)C(O)=C1C2=O [Minocycline],below detection limits
